Entries after “also recorded” stand apart in the source; their conditions may differ.
Key:
[1] = test system: Cav1.2 channels; test: Voltage-clamp recordings of Ba2+ currents (voltage-dependent inactivation of Cav1.2); format: cell-based, human; conditions: TS cardiomyocytes with CDK5 DN expression; 5 μM, 3 min
Protocol: The Timothy syndrome and control iPSCs were differentiated into cardiomyocytes following a protocol reported previously (Song et al., 2015) and infected with the lentiviruses at day 19-21 or day 25-27 after cardiac differentiation. The cardiomyocytes were dissociated into single cells for whole-cell patch-clamp recordings at day 31. Whole-cell patch-clamp recordings of iPSC-derived cardiomyocytes were conducted using a MultiClap 700B patch-clamp amplifier (Molecular Devices) and an inverted microscope equipped with differential interface optics (Nikon, Ti-U). The glass pipettes were prepared using borosilicate glass (Sutter Instrument, BF150-110-10) using a micropipette puller (Sutter Instrument, Model P-97). Voltage-clamp measurements were conducted using an extracellular solution consisting of 5 mM BaCl2, 160 mM TEA and 10 mM HEPES (pH7.4 at 25° C.) and a pipette solution of 125 mM CsCl, 0.1 mM CaCl2, 10 mM EGTA, 1 mM MgCl2, 4 mM MgATP and 10 mM HEPES (pH 7.4 with CsOH at 25° C.). Two pulse protocols were used. One protocol was that cells were held at −90 mV and then depolarized to −10 mV for 400 ms at a rate of 0.1 Hz for the Ba^2+ current recordings. […] Recorded action potentials were analyzed using Clampfit 10.4 (Axon Instruments).

[2] = test system: TS cardiomyocytes derived from hiPSCs; conditions: high dose; cited from earlier work
[3] = test system: Cav1.2 with Timothy syndrome mutation; conditions: heterologous over-expression system; cited from earlier work
[4] = test system: Timothy syndrome cardiomyocytes; test: Contraction assay with Matlab-based analysis and calcium imaging (Roscovitine analog and CDK inhibitor tests); format: cell-based, human; conditions: two rounds: cardiomyocyte clusters 24 hours, intact monolayer 2 hours after treatment; 5 μM, (R)-CR8 1 or 2 μM
Protocol: Two rounds of chemical tests were conducted to test the compounds. The first round of chemical test was conducted using Timothy syndrome cardiomyocyte clusters isolated from the monolayer cardiomyocytes to screen the compounds efficiently and to identify the positive compounds that could increase the spontaneous beating rate and decrease the contraction irregularity of the Timothy syndrome cardiomyocyte clusters (FIG. 1C).
The working solution of each compound was made by diluting the stock solution in our cardiomyocyte culture media to a final concentration of 5 μM except for (R)-CR8, which was diluted to a final concentration of 1 or 2 μM. The contraction analysis was performed as reported previously (Yazawa et al., 2011). The movies were taken before the treatment, and 24 hours after the treatment of each compound from the Timothy syndrome cardiomyocyte clusters isolated from the monolayer cardiomyocytes for the first round of test. The movies were taken before the treatment, and 2 hours after the treatment of each positive compound on the intact monolayer Timothy syndrome cardiomyocytes for the second round of test. The contraction rate and the irregularity of each sample before and after treatment were compared using paired Student t-test.

[5] = biological target: T1, CDK5/p35 (Homo sapiens, UniProt Q00535); test: In vitro kinase assay (ADP-Glo luminescence); format: biochemical; conditions: wild-type II-III loop or C-term of Cav1.2 as substrates
T1 construct: purchased Promega V3271
T1 sequence (Q00535 whole entry): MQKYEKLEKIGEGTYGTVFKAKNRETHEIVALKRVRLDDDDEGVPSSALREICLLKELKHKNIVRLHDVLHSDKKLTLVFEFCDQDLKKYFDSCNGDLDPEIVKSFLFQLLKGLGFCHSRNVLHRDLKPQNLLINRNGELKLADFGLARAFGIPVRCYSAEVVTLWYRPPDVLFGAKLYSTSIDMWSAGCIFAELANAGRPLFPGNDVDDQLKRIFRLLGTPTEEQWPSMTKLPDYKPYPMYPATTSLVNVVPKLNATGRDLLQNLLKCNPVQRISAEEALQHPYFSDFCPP
T1 sequence (Q15078 whole entry partner): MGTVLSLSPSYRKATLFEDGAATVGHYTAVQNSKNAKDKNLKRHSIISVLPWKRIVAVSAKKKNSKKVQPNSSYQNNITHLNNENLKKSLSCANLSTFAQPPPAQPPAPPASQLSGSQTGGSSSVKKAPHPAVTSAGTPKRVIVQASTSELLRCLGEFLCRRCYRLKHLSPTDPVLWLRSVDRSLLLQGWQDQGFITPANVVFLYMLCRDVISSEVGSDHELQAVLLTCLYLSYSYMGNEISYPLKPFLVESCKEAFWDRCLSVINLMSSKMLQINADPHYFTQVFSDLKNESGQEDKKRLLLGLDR
Excerpt: To determine whether CDK5 phosphorylates Cav1.2, an in vitro kinase assay was designed. The wild-type II-III loop or the C-term of Cav1.2 was used as the substrates in this assay. Mutant II-III loop and mutant C-term constructs were generated with substitutions of serine/threonine to glycine or alanine in all CDK5 consensus sequences as negative controls. The phosphorylation of the substrates by CDK5 consumes ATP and produces ADP, which is then converted into luminescence by detection reagents in the assay (FIG. 3D). The luminescence signal was reduced when the CDK5 inhibitor, PHA-793887 was added to the reactions using wild-type II-III loop or C-term as the substrates. […]
To prepare the substrates, the HEK 293T cells were transfected with the plasmid containing either the FLAG-tagged wild-type II-III loop or mutant II-III loop or wild-type C-terminus or mutant C-terminus using Lipofectamine 2000 (Thermo Fisher Scientific) following the manufacturer's protocol 24 hours after plating. […] A series of samples for a standard curve were prepared based on the manufacturer's instructions to determine the ATP-ADP conversion from the luminescence signals in every round of experiment. […] 20 ul of the samples from each tube was then transferred into a 96 well microplate and the luminescence was measured with the GloMax® 96 Microplate Luminometer (Promega).

[6] = withdrawn from US market in 2000; cited from earlier work

For CC[C@H](CO)Nc1nc(NCc2ccccc2)c2ncn(C(C)C)c2n1 [Roscovitine], the “voltage-dependent inactivation of Cav1.2” value [1] is listed as “did not further enhance; also recorded: did not significantly enhance”, the “cardiac phenotypes of TS cardiomyocytes” value [2] is listed as “rescue the cardiac phenotypes” and the “voltage-dependent inactivation of Cav1.2 with Timothy syndrome mutation” value [3] is listed as “enhance the voltage-dependent inactivation”.

For CC(C)CC(=O)Nc1[nH]nc2c1CN(C(=O)C1CCN(C)CC1)C2(C)C [PHA-793887], the “effects on Timothy syndrome cardiomyocytes (spontaneous beating rate, contraction irregularity)” value (“effects” below) [4] was “beneficial effects” and the “luminescence signal (phosphorylation of substrate by CDK5)” value [5] was “reduced; also recorded: blocked the phosphorylation”.

In the case of COc1cc(N)c(Cl)cc1C(=O)NC1CCN(CCCOc2ccc(F)cc2)CC1OC (centres unmarked) [cisapride], the side effect [6] is given as “QT prolongation”.

In the case of COc1ccc(CNc2nc(NCc3ccc(OC)cc3)c3ncn(C4CCCCC4)c3n2)cc1 [Myoseverin B], the “effects” value [4] is reported as “beneficial effects”.

For CC[C@H](CO)Nc1nc(NCc2ccc(-c3ccccn3)cc2)c2ncn(C(C)C)c2n1 [CR8], the “effects” value [4] was “beneficial effects”.
